Reference: patent US10815237B2, “Antimicrobials and methods of making and using same” (BIOVERSYS AG, priority 2016, dated 2020)
Converted amounts (≈) assume the structure as drawn.

Assays:
Format in all cases: cell-based
E. coli DH10B recipient = test: CLSI broth microdilution MIC, E. coli DH10B recipient; conditions: Escherichia coli, DH10BRECIPIENT, read-out: MIC
Protocol: (§1) Four compounds, including Compound No. 8 of the present application (RX-04D) were tested against (i) multiresistant Enterobacteriaceae and Acinetobacter with carbapenemases; (ii) Enterobacteriaceae with MCR-1; and (iii) P. aeruginosa with altered efflux (see Tables 4 and 5). In this case, MCR-1 is relevant because its activity reduces the negative charge of lipopolysaccharides, potentially affecting binding of poly-basic molecules such as the compounds tested herein, as well as polymyxins.
(§2) MICs of the four tested compounds and comparators (amikacin, cefepime, colistin, meropenem and tigecyline) were determined by CLSI broth microdilution using pre-prepared plates (Trek Diagnostic Systems) (CLSI Approved Standard M7-A10). Carbapenemase and mcr-1 genes were detected by PCR or sequencing. Efflux levels in P. aeruginosa isolates were inferred by interpretive reading of antibiogram data.

[1] = system: E. coli DH10B mcr-1 transformant; test: CLSI broth microdilution MIC, E. coli DH10B mcr-1 transformant; conditions: Escherichia coli
Protocol: as §1, §2

[2] = system: Enterobacteriaceae (n=68); test: CLSI broth microdilution MIC, Enterobacteriaceae panel; conditions: 68 Enterobacteriaceae
Protocol: as §1, §2

P. aeruginosa (n=20) = test: CLSI broth microdilution MIC, P. aeruginosa; conditions: P. aeruginosa isolates; stated jointly for analogues C and D
Protocol: as §1, §2

Row | SMILES | MIC (E. coli DH10B recipient) | MIC [1] | peak of unimodal MIC distribution [2] | share of MICs ≥16 mg/L (P. aeruginosa (n=20))
1 | CSc1cc(-n2cc3cc(-c4cc(CCC[C@@H](N)C5CC5)cc(Cl)c4F)[nH]c3nc2=O)ccc1[C@@H]1CCC[C@@H](CCNC(C)=N)N1 [RX-04C] | 0.5 µg/mL (≈ 0.753 µM) | 0.5 µg/mL (≈ 0.753 µM) | 2 µg/mL | 48%
2 | CC(=N)NCC[C@@H]1CCC[C@@H](c2ccc(-n3cc4cc(-c5cc(CCC[C@@H](N)CO)cc(Cl)c5F)[nH]c4nc3=O)cc2F)N1 [RX-04B] | 0.5 µg/mL (≈ 0.799 µM) | 0.5 µg/mL (≈ 0.799 µM) | 1 µg/mL | –
